Test results taken from EP0183129A1, “Quinolonecarboxylic acid derivatives” (KYORIN PHARMACEUTICAL CO., LTD., priority 1984, dated 1986).
Counter-ions that a name gives are not always drawn. Like-named read-outs stand apart in the source and are kept apart here.

Key:
[1] = test system: S. pneumoniae 3227; assay: In vitro antibacterial activity, MIC (clinical isolates); format: cell-based; details: Streptococcus pneumoniae; S. pneumoniae 3227; 10^6 cells/ml; clinical isolate; read-out: MIC
[2] = test system: S. faecalis IID 682; assay: In vitro antibacterial activity, MIC (standard strain); format: cell-based; details: Enterococcus faecalis, IID682; S. faecalis IID 682; 10^6 cells/ml; standard strain; read-out: MIC
[3] = test system: S. marcescens GN 7577; assay: as above; format: cell-based; details: Serratia marcescens, GN7577; S. marcescens GN 7577; 10^6 cells/ml; standard strain; read-out: MIC
[4] = test system: P. aeruginosa IFO 12689; assay: as above; format: cell-based, Pseudomonas aeruginosa; details: Pseudomonas aeruginosa, IFO12689; P. aeruginosa IFO 12689; 10^6 cells/ml; standard strain; read-out: MIC
[5] = test system: Klebsiella pneumoniae KY(GN)6445; assay: as above; format: cell-based; details: Klebsiella pneumoniae KY(GN)6445; 10^6 cells/ml; standard strain; read-out: MIC
[6] = test system: Escherichia coli NIHJ JC-2; assay: as above; format: cell-based; details: Escherichia coli, NIHJJC2, Escherichia coli NIHJ JC-2; 10^6 cells/ml; standard strain; read-out: MIC
[7] = test system: S. faecalis 402; assay: In vitro antibacterial activity, MIC (clinical isolates); format: cell-based; details: Enterococcus faecalis; S. faecalis 402; 10^6 cells/ml; clinical isolate; read-out: MIC
[8] = test system: Yersinia enterocolitica IID 981; assay: In vitro antibacterial activity, MIC (standard strain); format: cell-based; details: IID981; Yersinia enterocolitica IID 981; 10^6 cells/ml; standard strain; read-out: MIC
[9] = test system: S. faecalis 49; assay: In vitro antibacterial activity, MIC (clinical isolates); format: cell-based; details: Enterococcus faecalis; S. faecalis 49; 10^6 cells/ml; clinical isolate; read-out: MIC
[10] = test system: S. aureus Smith; assay: In vitro antibacterial activity, MIC (standard strain); format: cell-based, Staphylococcus aureus; details: Staphylococcus aureus; S. aureus Smith; 10^6 cells/ml; standard strain; read-out: MIC
[11] = test system: Streptococcus pyogenes S-8; assay: as above; format: cell-based; details: S8; Streptococcus pyogenes S-8; 10^6 cells/ml; standard strain; read-out: MIC
[12] = test system: Citrobacter freundii IID 976; assay: as above; format: cell-based; details: IID976; Citrobacter freundii IID 976; 10^6 cells/ml; standard strain; read-out: MIC
[13] = test system: S. pyogenes IID 692; assay: as above; format: cell-based; details: Streptococcus pyogenes, IID692; S. pyogenes IID 692; 10^6 cells/ml; standard strain; read-out: MIC
[14] = test system: Fusobacterium varium KYA 8501; assay: as above; format: cell-based; details: Fusobacterium varium, KYA8501, Fusobacterium varium KYA 8501; 10^6 cells/ml; standard strain; read-out: MIC
[15] = test system: Shigella sonnei IID 969; assay: as above; format: cell-based; details: IID969, 10^6 cells/ml
Protocol: Experiment-1 In vitro antibacterial activity
The in vitro antibacterial activity against gram-positive and gram-negative bacteria has been investivated.
The minimum inhibitory concentration (MIC) was determined in accordance with the method recommended by Japan Society of Chemotherapy.

[16] = test system: B. fragilis 0558; assay: as above; format: cell-based, Bacteroides fragilis; details: Bacteroides fragilis, 0558, B. fragilis 0558; 10^6 cells/ml; standard strain; read-out: MIC
[17] = test system: K. pneumoniae 1-220S; assay: as above; format: cell-based; details: Klebsiella pneumoniae, 1220S; K. pneumoniae 1-220S; 10^6 cells/ml; standard strain; read-out: MIC
[18] = test system: S. pyogenes 4340; assay: In vitro antibacterial activity, MIC (clinical isolates); format: cell-based; details: Streptococcus pyogenes; S. pyogenes 4340; 10^6 cells/ml; clinical isolate; read-out: MIC
[19] = test system: S. agalactiae 4342; assay: as above; format: cell-based; details: Streptococcus agalactiae; S. agalactiae 4342; 10^6 cells/ml; clinical isolate; read-out: MIC
[20] = test system: Alcaligenes faecalis 0104002; assay: In vitro antibacterial activity, MIC (standard strain); format: cell-based
[21] = test system: E. coli ML 4707; assay: as above; format: cell-based; details: Escherichia coli, ML4707; E. coli ML 4707; 10^6 cells/ml; standard strain; read-out: MIC
[22] = test system: S. pyogenes 3130; assay: In vitro antibacterial activity, MIC (clinical isolates); format: cell-based; details: Streptococcus pyogenes, read-out: MIC
[23] = test system: S. agalactiae 4468; assay: as above; format: cell-based; details: Streptococcus agalactiae; S. agalactiae 4468; 10^6 cells/ml; clinical isolate; read-out: MIC
[24] = Alcaligenes faecalis, 0104002, Alcaligenes faecalis 0104002, 10^6 cells/ml, standard strain, read-out: MIC

Row | SMILES | MIC [1] [µg/mL] | MIC [2] [µg/mL] | MIC [3] [µg/mL] | MIC [4] [µg/mL] | MIC [5] [µg/mL] | MIC [6] [µg/mL] | MIC [7] [µg/mL] | MIC [8] [µg/mL] | MIC [9] [µg/mL] | MIC [10] [µg/mL] | MIC [11] [µg/mL] | MIC [12] [µg/mL] | MIC [13] [µg/mL] | MIC [14] [µg/mL] | MIC [15] [µg/mL] | MIC [16] [µg/mL] | MIC [17] [µg/mL] | MIC [18] [µg/mL] | MIC [19] [µg/mL] | MIC [21] [µg/mL] | also measured
1 | CCNCC1CCN(c2cc3c(cc2F)c(=O)c(C(=O)O)cn3C2CC2)C1.Cl (centres unmarked) [Example 7, 1-Cyclopropyl-7-(3-ethylaminomethyl-1-pyrrolidinyl)-6-fluoro-1,4-dihydro-4-oxo-3-quinolinecarboxylic acid hydrochloride] | 0.39 | 0.39 | 6.25 | 3.13 | 0.1 | 0.05 | 0.78 | 0.39 | 0.78 | 0.1 | 0.39 | 0.1 | 0.39 | 12.5 | 0.05 | 25 | 0.2 | 0.2 | 0.39 | 0.05 | MIC [20, 24]: 1.56 µg/mL; MIC [22]: 0.2 µg/mL; MIC [23]: 0.39 µg/mL
2 | CNCC1CCN(c2cc3c(cc2F)c(=O)c(C(=O)O)cn3C2CC2)C1 (stereo not drawn) [Example 9, 1-Cyclopropyl-6-fluoro-1,4-dihydro-7-(3-methylaminomethyl-l-pyrrolidinyl)-4-oxo-3-quinolinecarboxylic acid hydrochloride] | 0.39 | 0.39 | 6.25 | 3.13 | 0.1 | 0.05 | 0.78 | 0.39 | 0.39 | 0.39 | 0.2 | 0.2 | 0.2 | 25 | 0.1 | 12.5 | 0.39 | 0.2 | 0.39 | 0.1 | MIC ([20]; Alcaligenes faecalis, 0104002): 1.56 µg/mL; MIC [22]: 0.1 µg/mL; MIC [23]: 0.39 µg/mL
3 | CCCNCC1CCN(c2c(F)cc3c(=O)c(C(=O)O)cn(C4CC4)c3c2F)C1 (stereo not drawn) [Example 10, 1-Cyclopropyl-6,8-difluoro-1,4-dihydro-4-oxo-7-(3-n-propylaminomethyl-l-pyrrolidinyl)-3-quinolinecarboxylic acid hydrochloride] | 0.2 | 0.39 | 3.13 | 3.13 | 0.05 | 0.05 | 0.39 | 0.1 | 0.39 | 0.05 | 0.39 | 0.05 | 0.39 | 6.25 | 0.025 | 0.78 | 0.2 | 0.2 | 0.2 | 0.2 | MIC [20, 24]: 0.78 µg/mL; MIC [22]: 0.2 µg/mL; MIC [23]: 0.39 µg/mL
4 | CC(C)NCC1CCN(c2c(F)cc3c(=O)c(C(=O)O)cn(C4CC4)c3c2F)C1.Cl (centres unmarked) [Example 11, 1-Cyclopropyl-6,8-difluoro-1,4-dihydro-7-(3-isopropylaminomethyl-1-pyrrolidinyl)-4-oxo-3-quinolinecarboxylic acid hydrochloride] | 0.39 | 0.39 | 3.13 | 3.13 | 0.1 | 0.05 | 0.39 | 0.2 | 0.2 | 0.05 | 0.2 | 0.1 | 0.2 | 3.13 | 0.05 | 0.78 | 0.2 | 0.2 | 0.2 | 0.05 | MIC [20, 24]: 1.56 µg/mL; MIC [22]: 0.2 µg/mL; MIC [23]: 0.2 µg/mL
